Test results reported in patent US20250270170A1, “2,3-DIMETHOXY-5-METHYL-1,4-BENZOQUINONE ALKYL ALCOHOL DERIVATIVE AND USE THEREOF” (BEIJING ANJIANXI BIO-MEDICAL TECHNOLOGY CO., LTD., priority 2021, published 2025).
Values joined by “and” are separate entries in the source; they are usually repeats but may differ in a detail not shown here. Equal values may be shown once. “Also recorded” adds a separate entry of the source.

How the values were obtained:
Format in all cases: in vivo, C57BL/6J mice
[1] = test system: cisplatin-induced acute kidney damage in mice; assay: Example 11: renal pathology (HE, PAS) and pathological scoring; settings: cisplatin 10 mg/kg alone (model) or with amifostine 50 mg/kg i.p. half an hour before; trihydrate
Procedure: (§1) 42 male C57BL/6J mice (age: 6 to 8 weeks, body weight 18-20 g, certificate number: 11400700238365) were purchased from Si Pei Fu (Beijing) Biotechnology Co., Ltd., and raised in an SPF-grade animal room of the Institute of Materia Medica, Chinese Academy of Medical Sciences, at a temperature of 20 to 25° C., a relative humidity of 40% to 70%, and a cycle of 12 hours of light and 12 hours of dark. The animals had free access to water and food. After 3 days of normal feeding, mice with good physical conditions after the veterinary examination were selected for this assay. Before grouping, a marker was used to mark on the base of the animals' tail. After grouping, each animal was marked with an ear cutout (7 mice in each group).
(§2) Assay animals: 42 7-week-old male C57 mice were used for animal testing after an adaptive feeding.
(§3) Group 1: blank control group;
(§4) The preparation of the R01 formulation administration test solution was the same as that in Example 5: an appropriate amount of the R01 formulation was weighed according to the three dosages set in the assay, respectively, and an appropriate volume of 0.5% CMC-Na aqueous solution was added. The mixture was vortexed and sonicated until mixed evenly, to give the administration test solutions with concentrations of […], respectively, which were ready for use.
(§5) Animal testing period: 7 days (excluding adaptive feeding), hereinafter referred to as: D1-D7.
1. […]
The body weight of the animals when being grouped for administration in each group was recorded. The body weight and the kidney weight at the end of the assay were also recorded, and the kidney coefficient was calculated. The creatinine and urea nitrogen values in the blood samples sent for testing were recorded. […]

[2] = Example 11: body weight in cisplatin-induced acute kidney damage model; settings: Amifostine group
Procedure: as §1, §2, §3, §4, §5
(§6) 1. The first group was a solvent control group: N=7, all mice were males (the same below); • a) 0.5% solution of sodium carboxymethyl cellulose was gavagely administered from D1 to D6 (twice a day for each animal, with an interval of 8 hours between the morning and the afternoon). • b) Physiological saline was intraperitoneally injected in one-time on D4. • c) On D7, blood was collected from the orbit for euthanasia (300 ul of serum was extracted), the left kidney was fixed in formaldehyde, and the right kidney was preserved in liquid nitrogen (WB study may be carried out).
(§7) 3) Each animal was weighed before euthanasia, and the weight was recorded. Two kidneys were weighed as soon as possible after euthanasia, and the weight was recorded. Then, the two kidneys were quickly fixed or cryopreserved, and the kidney coefficient of the mouse was calculated (kidney weight/mouse weight).
(§8) The body weight of the animals when being grouped for administration in each group was recorded. The body weight and the kidney weight at the end of the assay were also recorded, and the kidney coefficient was calculated. The creatinine and urea nitrogen values in the blood samples sent for testing were recorded. The kidneys were stained with HE and PAS, and the slides were scanned. A report was issued after the pathological analysis.
(§9) The assay data were calculated and processed statistically using Microsoft Office Excel 2007 software. Unless otherwise specified, the data were expressed as mean±standard error (Mean±SE), and t-test was used for comparison between two groups.

[3] = test system: cisplatin-induced acute kidney damage in mice; assay: Example 11: kidney weight and kidney coefficient in cisplatin-induced acute kidney damage model
Procedure: as §1, §2, §3, §4, §5, §6, §7, §8, §9

[4] = test system: cisplatin-induced acute kidney damage in mice; assay: Example 11: serum creatinine (Cre) in cisplatin-induced acute kidney damage model
Procedure: as §1, §2, §3, §4, §5, §6
(§10) 1) The concentrations of urea nitrogen and creatinine in peripheral blood serum were tested.
as §8, §9

[5] = test system: cisplatin-induced acute kidney damage in mice; assay: Example 11: serum urea nitrogen (Bun) in cisplatin-induced acute kidney damage model
Procedure: as §1, §2, §3, §4, §5, §6, §10, §8, §9

[6] = group mean, cisplatin model, Amifostine group
[7] = individual animals No. 1-7, cisplatin model, Amifostine group, trihydrate

NCCCNCCSP(=O)(O)O [amifostine, Amifostine trihydrate, reference compound]
pathological damage of kidneys [1]: slight renal tubular damage and blurred renal tubular epithelial edges; also recorded: significantly reduced
Body weight, Before x- after x ([2]; difference of group means, cisplatin model): 4.1 g
Body weight before cisplatin modeling, Before x (mean) ([2]; group mean): 20.9 g
Body weight after the assay, After x (mean) ([2]; group mean, cisplatin model): 16.8 g
Body weight before cisplatin modeling ([2]; individual animals No. 1-7, trihydrate): 20.2 g and 20.6 g (2×) and 20.4 g and 20.5 g and 21.8 g and 22.4 g
Body weight after the assay ([2]; individual animals No. 1-7, cisplatin model, trihydrate): 18 g and 16.7 g and 16.8 g and 17.1 g and 16.3 g and 15.8 g and 17.2 g
Kidney coefficient (kidney weight/body weight), x (mean) [3, 6]: 0.014
Kidney weight after the assay, x (mean) [3, 6]: 0.224 g
Kidney coefficient (kidney weight/body weight) [3, 7]: 0.014 (3×) and 0.015 (2×) and 0.013 (2×)
Kidney weight after the assay [3, 7]: 0.223 g and 0.249 g and 0.202 g and 0.227 g and 0.220 g and 0.205 g and 0.241 g
Kidney coefficient (kidney weight/body weight) ([3]; with cisplatin 10 mg/kg, amifostine 50 mg/kg i.p., R01 6, 18, 36 mg/kg bid): equivalent to that of the blank control group
serum creatinine value ([4]; cisplatin 10 mg/kg alone (vs blank, P<0.01) or with amifostine 50 mg/kg i.p. / R01 6, 18, 36 mg/kg bid): equivalent to that of the blank control group
Serum creatinine (Cre) level after the assay, x (mean) [4, 6]: 16.1 mg/dL
Serum creatinine (Cre) level after the assay [4, 7]: 9 mg/dl and 19 mg/dl and 14 mg/dl and 18 mg/dl (3×) and 17 mg/dl
serum urea nitrogen value ([5]; cisplatin 10 mg/kg alone (vs blank, P<0.05) or with amifostine 50 mg/kg i.p. (P<0.01)): significantly lower than that of the model group
Urea nitrogen (Bun) level after the assay, x (mean) [5, 6]: 8.1 mg/dL
Urea nitrogen (Bun) level after the assay [5, 7]: 10.92 mg/dL and 8.76 mg/dL and 6.62 mg/dL and 7.23 mg/dL and 7.62 mg/dL and 8.78 mg/dL and 6.47 mg/dL
